US8957091B2, “Use of quinolinone derivatives as a research tool” (Centre National de la Recherche Scientifique, priority 2010, dated 2015)
Entries after “also recorded” stand apart in the source; their conditions may differ. Like-named read-outs stand apart in the source and are kept apart here. One block for each molecule: values may come before it.

How the values were obtained:
Type in all cases: cell-based
Smo2 sites = biological target: T1, Smo2 sites (Mus musculus, UniProt P56726); assay: Inhibition of C3H10T1/2 differentiation (alkaline phosphatase activity) induced by compound 1 or compound 6; settings: for selectivity between Smo1 and Smo2 sites (in words): Smo1 stimulated by SAG, Smo2 stimulated by compound 1; for C3H10T1/2 cell differentiation IC50 Smo1/IC50 Smo2: ratio of mean IC50 values, Smo1 stimulated by SAG 0.1 μM, Smo2 by compound 1 1 μM
T1 construct: host or cells: C3H10T1/2
T1 sequence (P56726 33-793): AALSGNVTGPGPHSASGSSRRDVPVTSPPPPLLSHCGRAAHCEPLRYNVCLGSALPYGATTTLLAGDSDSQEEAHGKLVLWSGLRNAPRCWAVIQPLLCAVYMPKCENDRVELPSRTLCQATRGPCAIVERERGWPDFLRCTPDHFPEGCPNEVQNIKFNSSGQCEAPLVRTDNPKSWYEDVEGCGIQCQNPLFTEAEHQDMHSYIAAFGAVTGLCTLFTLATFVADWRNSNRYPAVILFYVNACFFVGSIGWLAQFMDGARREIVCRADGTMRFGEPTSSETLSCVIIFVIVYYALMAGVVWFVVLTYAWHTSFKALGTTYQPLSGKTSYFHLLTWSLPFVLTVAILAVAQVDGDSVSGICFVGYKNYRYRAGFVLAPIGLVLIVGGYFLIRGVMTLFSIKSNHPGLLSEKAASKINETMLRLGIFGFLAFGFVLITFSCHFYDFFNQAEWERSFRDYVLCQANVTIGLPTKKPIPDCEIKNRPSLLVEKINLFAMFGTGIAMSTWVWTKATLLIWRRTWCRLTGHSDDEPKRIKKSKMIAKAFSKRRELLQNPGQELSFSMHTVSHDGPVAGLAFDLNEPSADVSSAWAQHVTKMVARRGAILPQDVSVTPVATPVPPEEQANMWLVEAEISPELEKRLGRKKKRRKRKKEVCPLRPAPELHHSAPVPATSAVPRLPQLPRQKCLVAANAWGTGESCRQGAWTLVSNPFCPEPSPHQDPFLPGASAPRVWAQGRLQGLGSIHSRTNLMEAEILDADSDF
Protocol: (§1) The C3H10T1/2 cells were seeded onto 96-well plates at a density of 5×10^3 cells per well, 24 hours before the addition of the test compounds at a concentration ranging from 10 nM to 10 μM in DMEM culture medium supplemented with 10% of fetal calf serum. The tests were carried out in quadruplicate. The plates were then incubated for 5-6 days at a temperature of 37° C. under an atmosphere of 5% CO2. The cells were then washed in cold phosphate buffer (phosphate buffered saline: PBS) and then lysed by sonication at 4° C. in 50 μl of a solution containing 0.9% of NaCl and 0.2% of Triton X-100.
(§2) The alkaline phosphatase in the resulting lysates was then measured according to the method described by Pepinsky et al. (Pepinsky et al. 1998). After the addition of […] of reaction buffer (200 mM Tris-HCL; pH 10.5; 0.4 M of 2-amino-2-methylpropanol and 8 mM of MgCl2) and of 50 μl of substrate (4 mM of disodium p-nitrophenyl phosphate), the lysates were incubated at 37° C. for 30-60 min and then the optical density was read at a wavelength of 415 nm.

Smo1 sites = biological target: T2, Smo1 sites (Mus musculus, UniProt P56726); assay: Inhibition of C3H10T1/2 differentiation (alkaline phosphatase activity) induced by SAG; settings: for IC50: alkaline phosphatase activity induced by SAG (0.1 μM)
T2 construct: host or cells: C3H10T1/2
T2 sequence (P56726 33-793): as above
Protocol: as §1, §2

[1] = tested on: C3H10T1/2 mesenchymal stem cells; assay: Modulation by IWR1 of differentiation stimulated by compound 1 or SAG
Protocol: For the experiments in the presence of forskolin, compound 1 (1 μM) and SAG (0.3 μM) were used to stimulate differentiation in the presence of increasing concentrations (1, 3 and 10 μM) of forskolin (Sigma). The IWR1 compound (Sigma), for its part, was used at 10 μM on an activation by compound 1 at 1 μM or SAG at 0.1 μM. The alkaline phosphatase activity was measured as previously.

C3H10T1/2 cells = assay: Activation of osteogenic differentiation of C3H10T1/2 cells (alkaline phosphatase activity); settings: for stimulation of osteogenesis: induction of alkaline phosphatase after 6 days
Protocol: The pluripotent fibroblast cell line C3H10T1/2 (ATCC) was cultured under the conditions recommended by the ATCC. The stimulation of the differentiation of these cells was carried out using increasing concentrations of compounds according to the methods described by Chen et al. and Frank-Kamenetsky et al. (Chen et al. 2002; Frank-Kamenetsky et al. 2002). The activation by the compounds of general formula (I) causes differentiation of the cell line and enables the latter to express alkaline phosphatase. It was thus possible to measure the activity of the compounds via the measurement of alkaline phosphatase activity. By way of comparison, the activity of the SAG compound (Chen et al. 2002), an Smo activator, was tested under the same conditions as those used to test the compounds of general formula (I).
as §1, §2

[2] = alkaline phosphatase activity induced by compound 1 (1 μM), C3H10T1/2 cells, read-out: Smo2 IC50
[3] = alkaline phosphatase activity induced by compound 1 (1 μM), mean ± SEM of 2 to 6 experiments, read-out: IC50 μM, C3H10T1/2, Compound 1
[4] = alkaline phosphatase activity induced by compound 6 (3 μM), mean ± SEM of 2 to 6 experiments, read-out: IC50 μM, C3H10T1/2, Compound 6
[5] = antagonist at 10 μM, induced by compound 1 (1 μM), C3H10T1/2 cells
[6] = C3H 10T1/2, antagonist at 10 μM, induced by compound 1 (1 μM), C3H10T1/2 cells, read-out: Smo2 Inhibition 10 μM
[7] = C3H 10T1/2, antagonist at 10 μM, induced by SAG (0.1 μM), C3H10T1/2 cells, read-out: Smo1 Inhibition 10 μM

SMILES: CC1=C2C[C@H]3[C@@H](CC=C4C[C@@H](O)CC[C@@]43C)[C@@H]2CC[C@]12O[C@@H]1C[C@H](C)CN[C@H]1[C@H]2C [Cyclopamine, cyclopamine]
inhibition at 10 µM (Smo2 sites; C3H 10T1/2, read-out: Smo2 Inhibition 10 μM): 48% | Smo2 Inhibition 10 μM (Smo2 sites; [5]): weaker inhibition | inhibition at 10 µM (Smo1 sites; C3H 10T1/2, read-out: Smo1 Inhibition 10 μM): 98% | Smo1 Inhibition 10 μM (Smo1 sites; antagonist at 10 μM, induced by SAG (0.1 μM), C3H10T1/2 cells): complete inhibition

SMILES: O=C(Nc1cccc2cccnc12)c1ccc(N2C(=O)[C@@H]3[C@H](C2=O)[C@@H]2C=C[C@H]3C2)cc1 [IWR1]
effect on the activity of SAG ([1]; IWR1 10 μM, SAG at 0.1 μM): does not modify; also recorded: does not affect | effect on the activity of compound 1 (in words) ([1]; IWR1 10 μM, compound 1 at 1 μM): inhibits the activity of compound 1 | reduction of the activity of compound 1 ([1]; IWR1 10 μM, compound 1 at 1 μM): 60% | IC50 ([1]; dose-response curve of compound 1 with IWR1, read-out: IC50 with respect to alkaline phosphatase inhibition): 2500 nM

SMILES: COc1cc(C(=O)NC(=S)Nc2ccc(C)c(NC(=O)c3ccc(-c4ccccc4)cc3)c2)cc(OC)c1OC [MRT-81]
inhibition at 10 µM (Smo2 sites; [6]): 100% | IC50 (Smo2 sites; [3]): 0.06 µM | IC50 (Smo2 sites; [4]): 0.06 µM | times more selective with respect to Smo2 sites (Smo2 sites; compound 1 versus SAG stimulation): 1.3 times | C3H10T1/2 cell differentiation IC50 Smo1/IC50 Smo2 (Smo2 sites): 0.9 | inhibition at 10 µM (Smo1 sites; [7]): 100% | IC50 (Smo1 sites; C3H10T1/2 cells): 60 ± 20 nM

SMILES: CCCCCCn1c(=O)c(C(=O)Nc2ccc(C(=O)OCCC)cc2)c(O)c2ccccc21 [compound 1, propyl 4-(1-hexyl-4-hydroxy-2-oxo-1,2-dihydroquinoline-3-carboxamido)benzoate]
maximum stimulation compared with SAG (C3H10T1/2 cells; dose-response curves produced in parallel): greater than that of the Smo agonist SAG | stimulation of osteogenesis (C3H10T1/2 cells): have the capacity to stimulate osteogenesis

SMILES: CCCCCCn1c(=O)c(C(=O)Nc2ccc(C(=O)OC(C)(C)C)cc2)c(O)c2ccccc21 [compound 6, tert-butyl 4-(1-hexyl-4-hydroxy-2-oxo-1,2-dihydroquinoline-3-carboxamido)benzoate]
stimulation of osteogenesis (C3H10T1/2 cells): have the capacity to stimulate osteogenesis

Second part, led by results:

IC50 (Smo2 sites; [2]): 5.7 ± 1.6 µM | IC50 (Smo2 sites; [3]): 5.7 ± 1.6 µM | IC50 (Smo2 sites; [4]): 7 ± 1 µM | Smo2 Inhibition 10 μM (Smo2 sites; [5]): weaker inhibition | C3H10T1/2 cell differentiation IC50 Smo1/IC50 Smo2 (Smo2 sites): 17 | selectivity for the Smo1 site compared with the Smo2 site (Smo1 sites; SAG versus compound 1 stimulation): 17 fold
SMILES: COc1cccc(CN(C(=O)CC(C)(C)C)[C@H]2C[C@@H](C(=O)N3CCNCC3)N(Cc3ccc4c(c3)OCO4)C2)c1 [Cur61414]
selectivity between Smo1 and Smo2 sites (in words) (Smo2 sites): much more selective with respect to Smo1 sites than Smo2 sites

inhibition at 10 µM (Smo2 sites; [6]): 95% | selectivity between Smo1 and Smo2 sites (in words) (Smo2 sites): comparable affinities | C3H10T1/2 cell differentiation IC50 Smo1/IC50 Smo2 (Smo2 sites): 2.5 | IC50 (Smo2 sites; response induced by compound 1, read-out: affinity (IC50) for compound 1): 0.32 µM | IC50 (Smo2 sites; response induced by compound 6, read-out: affinity (IC50) for compound 6): 0.4 µM | inhibition at 10 µM (Smo1 sites; [7]): 100% | IC50 (Smo1 sites; C3H10T1/2 cells): 130 ± 50 nM
SMILES: COc1cc(C(=O)NC(=O)Nc2cccc(NC(=O)c3ccccc3)c2)cc(OC)c1OC [MRT-14]

C3H10T1/2 cell differentiation IC50 Smo1/IC50 Smo2 (Smo2 sites): 0.08
SMILES: COc1cc(C(=O)NC(=S)Nc2cccc(NC(=O)c3ccc(-c4ccc(F)cc4)cc3)c2)cc(OC)c1OC [MRT-79]
selectivity between Smo1 and Smo2 sites (in words) (Smo2 sites): more selective with respect to Smo2 sites than the Smo1 sites

inhibition at 10 µM (Smo2 sites; [6]): 71% | selectivity between Smo1 and Smo2 sites (in words) (Smo2 sites): comparable affinities | IC50 (Smo2 sites; [2]): 0.06 ± 0.02 µM | C3H10T1/2 cell differentiation IC50 Smo1/IC50 Smo2 (Smo2 sites): 1.5 | inhibition at 10 µM (Smo1 sites; [7]): 100% | IC50 (Smo1 sites; C3H10T1/2 cells): 40 ± 10 nM
SMILES: Cc1nn(-c2ccccc2)c(C)c1/C=N/N1CCN(Cc2ccccc2)CC1 [SANT-1]
